Several values for one entry are separate records, joined by “and”; a condition that tells them apart may be missing. Equal entries are not always repeated. Toxic doses and inconclusive results are not listed. No stated cut-off is given here; in the data, active means T/C of 150% or more; inactive means T/C below 125%.
System: L1210 leukemia ip in BDF1 mice, survival T/C
Test: NCI In Vivo Anticancer Drug Screen. Data for tumor model L1210 Leukemia (intraperitoneal) in B6D2F1 (BDF1) mice
Conditions: endpoint: mean survival time, higher = longer survival
Procedure, shortened: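 Antitumor effect is assessed in tumor-bearing animals. Survival in the compound arm is compared with a vehicle-dosed control arm and expressed as their quotient.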

[1] = dose: 100.0 mg/kg/injection, schedule: Q04DX003 (ip), vehicle: saline with Tween-80
[2] = dose: 200.0 mg/kg/injection, schedule: Q04DX003 (ip), vehicle: saline with Tween-80
[3] = dose: 400.0 mg/kg/injection, schedule: Q04DX003 (ip), vehicle: saline with Tween-80
[4] = dose: 50.0 mg/kg/injection, schedule: Q01DX009 (ip), vehicle: saline with Tween-80
[5] = dose: 100.0 mg/kg/injection, schedule: Q01DX009 (ip), vehicle: saline with Tween-80
[6] = dose: 200.0 mg/kg/injection, schedule: Q01DX009 (ip), vehicle: saline with Tween-80
[7] = dose: 12.5 mg/kg/injection, schedule: Q04DX003 (ip), vehicle: saline with Tween-80
[8] = dose: 25.0 mg/kg/injection, schedule: Q04DX003 (ip), vehicle: saline with Tween-80
[9] = dose: 100.0 mg/kg/injection, schedule: Q01DX005 (ip), vehicle: saline
[10] = dose: 100.0 mg/kg/injection, schedule: Q01DX009 (ip), vehicle: saline
[11] = dose: 200.0 mg/kg/injection, schedule: Q01DX005 (ip), vehicle: saline
[12] = dose: 200.0 mg/kg/injection, schedule: Q01DX009 (ip), vehicle: saline
[13] = dose: 100.0 mg/kg/injection, schedule: Q01DX001 (ip), vehicle: Klucel (hydroxypropylcellulose) (HPC)
[14] = dose: 100.0 mg/kg/injection, schedule: Q01DX009 (ip), vehicle: Klucel (hydroxypropylcellulose) (HPC)
[15] = dose: 100.0 mg/kg/injection, schedule: Q04DX003 (ip), vehicle: Klucel (hydroxypropylcellulose) (HPC)
[16] = dose: 200.0 mg/kg/injection, schedule: Q01DX009 (ip), vehicle: Klucel (hydroxypropylcellulose) (HPC)
[17] = dose: 200.0 mg/kg/injection, schedule: Q04DX003 (ip), vehicle: Klucel (hydroxypropylcellulose) (HPC)
[18] = dose: 400.0 mg/kg/injection, schedule: Q01DX009 (ip), vehicle: Klucel (hydroxypropylcellulose) (HPC)
[19] = dose: 400.0 mg/kg/injection, schedule: Q04DX003 (ip), vehicle: Klucel (hydroxypropylcellulose) (HPC)

Measured: T/C

N#CCCn1cnc2c(=S)nc[nH]c21
inactive: dose: 2.0 mg/kg/injection, schedule: Q01DX Z (ip), vehicle: other 97 % of control | dose: 4.0 mg/kg/injection, schedule: Q01DX Z (ip), vehicle: other 97 % of control and 100 % of control | dose: 8.0 mg/kg/injection, schedule: Q01DX Z (ip), vehicle: other 100 % of control and 106 % of control | dose: 16.0 mg/kg/injection, schedule: Q01DX Z (ip), vehicle: other 101 % of control and 102 % of control | dose: 32.0 mg/kg/injection, schedule: Q01DX Z (ip), vehicle: other 96 % of control and 98 % of control

O=c1oc2ccccc2c(O)c1C(C/C(=N/O)c1ccccc1)c1ccccc1 (stereo not given)
inactive: [1] 96 % of control | [2] 91 % of control | [3] 88 % of control

CCOC(=O)c1c2c3c(c(Br)cc(C)c3[nH]c1=O)C(=O)c1ccccc1-2
inactive: [4] 97 % of control | [5] 101 % of control | [6] 101 % of control

CCOC(=O)c1cc(=O)c2c(ccc3cc(OC)ccc32)[nH]1
inactive: dose: 6.25 mg/kg/injection, schedule: Q04DX002 (ip), vehicle: carboxymethylcellulose (CMC) 101 % of control and 89 % of control | dose: 12.5 mg/kg/injection, schedule: Q01DX001 (ip), vehicle: carboxymethylcellulose (CMC) 105 % of control | dose: 12.5 mg/kg/injection, schedule: Q01DX009 (ip), vehicle: carboxymethylcellulose (CMC) 94 % of control and 105 % of control | dose: 12.5 mg/kg/injection, schedule: Q04DX003 (ip), vehicle: carboxymethylcellulose (CMC) 100 % of control | dose: 25.0 mg/kg/injection, schedule: Q01DX001 (ip), vehicle: carboxymethylcellulose (CMC) 105 % of control | dose: 25.0 mg/kg/injection, schedule: Q01DX009 (ip), vehicle: carboxymethylcellulose (CMC) 97 % of control and 98 % of control | dose: 25.0 mg/kg/injection, schedule: Q04DX003 (ip), vehicle: carboxymethylcellulose (CMC) 93 % of control | dose: 50.0 mg/kg/injection, schedule: Q01DX001 (ip), vehicle: carboxymethylcellulose (CMC) 94 % of control | dose: 50.0 mg/kg/injection, schedule: Q01DX009 (ip), vehicle: carboxymethylcellulose (CMC) 94 % of control and 88 % of control | dose: 50.0 mg/kg/injection, schedule: Q04DX003 (ip), vehicle: carboxymethylcellulose (CMC) 100 % of control

CC(C)(C)c1ccc(O)c(C(C)(C)C)c1
inactive: [4] 100 % of control | [5] 96 % of control | [1] 91 % of control | [6] 97 % of control | [2] 95 % of control

CC(=O)[O][Hg][c]1c(C)c(C)cc(C)c1C
inactive: dose: 6.25 mg/kg/injection, schedule: Q04DX003 (ip), vehicle: saline with Tween-80 93 % of control | [7] 87 % of control | [8] 95 % of control

CSc1nc(N)nc2c1ncn2C1CC(O)C(CO)O1 (stereo not given)
inactive: [9] 105 % of control and 112 % of control and 96 % of control | [10] 121 % of control | [11] 112 % of control and 121 % of control and 91 % of control | [12] 115 % of control | dose: 400.0 mg/kg/injection, schedule: Q01DX009 (ip), vehicle: saline 116 % of control

O=[N+]([O-])c1cc(O)cc(F)c1
inactive: dose: 100.0 mg/kg/injection, schedule: Q01DX001 (ip), vehicle: carboxymethylcellulose (CMC) 100 % of control

CCN1C(N)=NC(N)=NC1c1ccccc1 (stereo not given)
inactive: dose: 25.0 mg/kg/injection, schedule: Q01DX001 (ip), vehicle: Klucel (hydroxypropylcellulose) (HPC) 103 % of control | dose: 50.0 mg/kg/injection, schedule: Q01DX001 (ip), vehicle: Klucel (hydroxypropylcellulose) (HPC) 97 % of control | [13] 102 % of control and 103 % of control

N#CS
inactive: dose: 50.0 mg/kg/injection, schedule: Q01DX009 (ip), vehicle: saline 102 % of control | [10] 95 % of control | [12] 98 % of control

COc1ccccc1/C=C/c1cnccn1
inactive: [14] 98 % of control | [15] 96 % of control | [16] 101 % of control | [17] 102 % of control | [18] 93 % of control | [19] 104 % of control

OCc1cc(-c2ccc(Cl)cc2)nc2c(C(F)(F)F)cccc12
inactive: [14] 108 % of control | [15] 102 % of control | [16] 111 % of control | [17] 104 % of control | [18] 109 % of control | [19] 102 % of control

COc1ccccc1CNCc1ccccc1
inactive: dose: 75.0 mg/kg/injection, schedule: Q01DX001 (ip), vehicle: other 101 % of control

CC(=O)OCOC1C(COC(C)=O)OCOC(COC(C)=O)C1OCOC(C)=O (stereo not given)
inactive: [13] 103 % of control | dose: 200.0 mg/kg/injection, schedule: Q01DX001 (ip), vehicle: Klucel (hydroxypropylcellulose) (HPC) 103 % of control | dose: 400.0 mg/kg/injection, schedule: Q01DX001 (ip), vehicle: Klucel (hydroxypropylcellulose) (HPC) 110 % of control

Cn1nc2c(N)ncnc2c1C1OC(CO)C(O)C1O (stereo not given)
inactive: [9] 116 % of control | [11] 106 % of control

CCCCc1ccc(Nc2cc(=O)[nH]c(=O)[nH]2)cc1
inactive: dose: 25.0 mg/kg/injection, schedule: Q01DX001 (ip), vehicle: gum acacia 87 % of control | dose: 50.0 mg/kg/injection, schedule: Q01DX001 (ip), vehicle: gum acacia 87 % of control | dose: 200.0 mg/kg/injection, schedule: Q01DX001 (ip), vehicle: gum acacia 88 % of control | dose: 400.0 mg/kg/injection, schedule: Q01DX001 (ip), vehicle: gum acacia 88 % of control

CCCCCCCCCCCCCCCC(=O)Nc1c(C)cccc1Cl
inactive: dose: 100.0 mg/kg/injection, schedule: Q04DX002 (ip), vehicle: saline with Tween-80 96 % of control | dose: 200.0 mg/kg/injection, schedule: Q04DX002 (ip), vehicle: saline with Tween-80 88 % of control | dose: 400.0 mg/kg/injection, schedule: Q04DX002 (ip), vehicle: saline with Tween-80 93 % of control

CC(=[N-])CC(C)=O.CC(=[N-])CC(C)=O.[Co+2]
inactive: dose: 12.5 mg/kg/injection, schedule: Q01DX001 (ip), vehicle: saline 86 % of control | dose: 25.0 mg/kg/injection, schedule: Q01DX001 (ip), vehicle: saline 98 % of control

Cc1ccc(NC(=O)NC(C)C)c(C)c1
inactive: [7] 96 % of control | [8] 98 % of control | dose: 50.0 mg/kg/injection, schedule: Q04DX003 (ip), vehicle: saline with Tween-80 104 % of control | [3] 90 % of control

Nc1ncnn1C(=S)NCc1ccccc1
inactive: [10] 100 % of control | dose: 100.0 mg/kg/injection, schedule: Q04DX003 (ip), vehicle: saline 89 % of control | dose: 200.0 mg/kg/injection, schedule: Q04DX003 (ip), vehicle: saline 90 % of control | dose: 400.0 mg/kg/injection, schedule: Q04DX003 (ip), vehicle: saline 88 % of control

[Cu+2].[NH-]C1C(Cl)CCC2C(Cl)CC[N-]C12 (stereo not given)
inactive: dose: 6.0 mg/kg/injection, schedule: Q04DX003 (ip), vehicle: Klucel (hydroxypropylcellulose) (HPC) 91 % of control | dose: 12.0 mg/kg/injection, schedule: Q01DX001 (ip), vehicle: other 108 % of control | dose: 12.0 mg/kg/injection, schedule: Q04DX003 (ip), vehicle: Klucel (hydroxypropylcellulose) (HPC) 102 % of control | dose: 25.0 mg/kg/injection, schedule: Q01DX001 (ip), vehicle: other 108 % of control

Reference: PubChem BioAssay AID248 (DTP/NCI, 2004)
